Reference: patent publication US4205163A, “Tylosin derivatives” (Sanraku-Ocean Co., Ltd., priority 1977, dated 1980)
≈ marks a conversion by molar mass, not a printed value.

What was measured:
Experiment in all cases: antimicrobial activity, broth dilution method
Type in all cases: cell-based
[1] = test system: Streptococcus pyogenes MH-771; settings: for minimum inhibitory concentration (MIC): Streptococcus pyogenes MH-771, drug-resistant clinical isolate; for MIC: Streptococcus pyogenes, MH771, Streptococcus pyogenes MH-771, drug-resistant clinical isolate, read-out: minimum inhibitory concentration (MIC)
Method: (§1) Antimicrobial activity of the new antibiotics according to the present invention was measured on various pathogenic microorganisms by the broth dilution mehtod. Tab. […] The new antibiotics show a similar antimicrobial spectrum to that of tylosin as shown in Tab. 4. All the compounds have an excellent antimicrobial activity mainly on gram-positive bacteria. […] Test microorganisms with an asterisk mark (*) in Tab. 4 are all drug-resistant strains that were clinically isolated. More in detail, Staphylococcus aureus MS-8710 is resistant to tylosin, penicillin, tetracycline, erythromycin and leucomycin. Staphylococcus aureus MS-9931 is resistant to tylosin, penicillin, erythromycin, tetracycline, leucomycin, spiramycin and josamycin. And also Streptococcus piogenes is resistant to tylosin, erythromycin, oleandomycin and leucomycin.

[2] = test system: Bacillus cereus ATCC 9634; settings: broth dilution; for minimum inhibitory concentration (MIC): Bacillus cereus ATCC 9634; for MIC: Bacillus cereus, ATCC9634, Bacillus cereus ATCC 9634, read-out: minimum inhibitory concentration (MIC)
Method: as §1

[3] = test system: Staphylococcus aureus MS-9937; settings: Staphylococcus aureus MS-9937, drug-resistant clinical isolate; for MIC: MS9937, read-out: minimum inhibitory concentration (MIC)
Method: as §1

[4] = test system: Staphylococcus aureus MS-8710; settings: for minimum inhibitory concentration (MIC): Staphylococcus aureus MS-8710, drug-resistant clinical isolate; for MIC: Staphylococcus aureus, MS8710, Staphylococcus aureus MS-8710, drug-resistant clinical isolate, read-out: minimum inhibitory concentration (MIC)
Method: as §1

[5] = test system: Staphylococcus aureus MS-9931; settings: Staphylococcus aureus MS-9931, drug-resistant clinical isolate; for MIC: MS9931, read-out: minimum inhibitory concentration (MIC)
Method: as §1

[6] = test system: Staphylococcus aureus SMITH; settings: Staphylococcus aureus SMITH, broth dilution; for MIC: Staphylococcus aureus, read-out: minimum inhibitory concentration (MIC)
Method: as §1

[7] = test system: Staphylococcus aureus FDA-209P; settings: Staphylococcus aureus FDA-209P, broth dilution; for MIC: Staphylococcus aureus, FDA209P, read-out: minimum inhibitory concentration (MIC)
Method: as §1

Sarcina lutea ATCC 9341 = settings: for minimum inhibitory concentration (MIC): Sarcina lutea ATCC 9341; for MIC: Micrococcus luteus, ATCC9341, Sarcina lutea ATCC 9341, read-out: minimum inhibitory concentration (MIC)
Method: as §1

Compound	minimum inhibitory concentration (MIC) [1] [mg/L]	minimum inhibitory concentration (MIC) [2] [mg/L]	minimum inhibitory concentration (MIC) [3] [mg/L]	minimum inhibitory concentration (MIC) [4] [mg/L]	minimum inhibitory concentration (MIC) [5] [mg/L]	minimum inhibitory concentration (MIC) [6] [mg/L]	minimum inhibitory concentration (MIC) [7] [mg/L]	minimum inhibitory concentration (MIC) (Sarcina lutea ATCC 9341) [mg/L]	MIC [1] [mg/L]	MIC [2] [mg/L]	MIC [3] [mg/L]	MIC [4] [mg/L]	MIC [5] [mg/L]	MIC [6] [mg/L]	MIC [7] [mg/L]	MIC (Sarcina lutea ATCC 9341) [mg/L]
3-acetyl-4"-(1-imidazolyl)propionyltylosin [Compound 33]	12.5	1.56	50	25	50	1.56	1.56	0.78								
4"-thienylacetyltylosin [Compound 30]	6.25	0.39	25	12.5	25	0.39	0.39	0.19								
CCC1OC(=O)CC(O)C(C)C(OC2OC(C)C(OC3CC(C)(O)C(O)C(C)O3)C(N(C)C)C2OC(C)=O)C(CC=O)CC(C)C(=O)C=CC(C)=CC1COC1OC(C)C(O)C(OC)C1OC (stereo not drawn) [2'-acetyltylosin, reference compound]									> 200	1.56 (≈ 1.63 µM)	200 (≈ 209 µM)	> 200	200 (≈ 209 µM)	1.56 (≈ 1.63 µM)	1.56 (≈ 1.63 µM)	0.39 (≈ 0.407 µM)
CCC1OC(=O)CC(O)C(C)C(OC2OC(C)C(OC3CC(C)(O)C(O)C(C)O3)C(N(C)C)C2OC(=O)CCl)C(CC=O)CC(C)C(=O)C=CC(C)=CC1COC1OC(C)C(O)C(OC)C1OC (stereo not drawn) [2'-monochloroacetyltylosin, reference compound]									> 200	1.56 (≈ 1.57 µM)	200 (≈ 201 µM)	> 200	200 (≈ 201 µM)	1.56 (≈ 1.57 µM)	1.56 (≈ 1.57 µM)	0.39 (≈ 0.393 µM)
CCC(=O)OC1C(OC2C(CC=O)CC(C)C(=O)C=CC(C)=CC(COC3OC(C)C(O)C(OC)C3OC)C(CC)OC(=O)CC(O)C2C)OC(C)C(OC2CC(C)(O)C(O)C(C)O2)C1N(C)C (stereo not drawn) [2'-propionyltylosin, reference compound]									> 200	1.56 (≈ 1.6 µM)	200 (≈ 206 µM)	> 200	200 (≈ 206 µM)	1.56 (≈ 1.6 µM)	1.56 (≈ 1.6 µM)	0.39 (≈ 0.401 µM)
CCC1OC(=O)CC(OC(C)=O)C(C)C(OC2OC(C)C(OC3CC(C)(O)C(O)C(C)O3)C(N(C)C)C2OC(C)=O)C(CC=O)CC(C)C(=O)C=CC(C)=CC1COC1OC(C)C(O)C(OC)C1OC (stereo not drawn) [3,2'-diacetyltylosin, reference compound]									> 200	1.56 (≈ 1.56 µM)	200 (≈ 200 µM)	> 200	200 (≈ 200 µM)	1.56 (≈ 1.56 µM)	1.56 (≈ 1.56 µM)	0.39 (≈ 0.39 µM)
CCC1OC(=O)CC(O)C(C)C(OC2OC(C)C(OC3CC(C)(O)C(O)C(C)O3)C(N(C)C)C2OC(C)=O)C(CC=O)CC(C)C(=O)C=CC(C)=CC1COC1OC(C)C(OC(=O)CCl)C(OC)C1OC (stereo not drawn) [Compound 1, 2'-acetyl-4'"-monochloracetyltylosin]									200 (≈ 193 µM)	1.56 (≈ 1.51 µM)	200 (≈ 193 µM)	> 200	200 (≈ 193 µM)	1.56 (≈ 1.51 µM)	1.56 (≈ 1.51 µM)	0.78 (≈ 0.754 µM)
CCC1OC(=O)CC(O)C(C)C(OC2OC(C)C(OC3CC(C)(O)C(O)C(C)O3)C(N(C)C)C2OC(C)=O)C(CC=O)CC(C)C(=O)C=CC(C)=CC1COC1OC(C)C(OC(=O)C(Cl)(Cl)Cl)C(OC)C1OC (stereo not drawn) [Compound 2, 2'-acetyl-4'"-trichloroacetyltylosin]									200 (≈ 181 µM)	1.56 (≈ 1.41 µM)	100 (≈ 90.6 µM)	200 (≈ 181 µM)	100 (≈ 90.6 µM)	1.56 (≈ 1.41 µM)	1.56 (≈ 1.41 µM)	0.39 (≈ 0.353 µM)
CCC1OC(=O)CC(OC(C)=O)C(C)C(OC2OC(C)C(OC3CC(C)(O)C(O)C(C)O3)C(N(C)C)C2OC(C)=O)C(CC=O)CC(C)C(=O)C=CC(C)=CC1COC1OC(C)C(OC(=O)CCl)C(OC)C1OC (stereo not drawn) [Compound 3, 3,2'-diacetyl-4'"-monochloroacetyltylosin]									100 (≈ 92.9 µM)	1.56 (≈ 1.45 µM)	100 (≈ 92.9 µM)	100 (≈ 92.9 µM)	100 (≈ 92.9 µM)	1.56 (≈ 1.45 µM)	1.56 (≈ 1.45 µM)	0.78 (≈ 0.724 µM)
CCC1OC(=O)CC(OC(C)=O)C(C)C(OC2OC(C)C(OC3CC(C)(O)C(O)C(C)O3)C(N(C)C)C2OC(C)=O)C(CC=O)CC(C)C(=O)C=CC(C)=CC1COC1OC(C)C(OC(=O)C(Cl)(Cl)Cl)C(OC)C1OC (stereo not drawn) [Compound 4, 3,2'-diacetyl-4'"-trichloroacetyltylosin]									100 (≈ 87.3 µM)	1.56 (≈ 1.36 µM)	100 (≈ 87.3 µM)	100 (≈ 87.3 µM)	100 (≈ 87.3 µM)	1.56 (≈ 1.36 µM)	1.56 (≈ 1.36 µM)	0.39 (≈ 0.34 µM)
CCC1OC(=O)CC(O)C(C)C(OC2OC(C)C(OC3CC(C)(O)C(O)C(C)O3)C(N(C)C)C2OC(C)=O)C(CC=O)CC(C)C(=O)C=CC(C)=CC1COC1OC(C)C(OC(=O)COc2ccccc2)C(OC)C1OC (stereo not drawn) [Compound 5, 2'-acetyl-4'"-phenoxyacetyltylosin]									100 (≈ 91.6 µM)	0.78 (≈ 0.714 µM)	100 (≈ 91.6 µM)	100 (≈ 91.6 µM)	100 (≈ 91.6 µM)	0.78 (≈ 0.714 µM)	0.78 (≈ 0.714 µM)	0.39 (≈ 0.357 µM)
CCOC(=O)OC1C(C)OC(OCC2C=C(C)C=CC(=O)C(C)CC(CC=O)C(OC3OC(C)C(OC4CC(C)(O)C(O)C(C)O4)C(N(C)C)C3OC(C)=O)C(C)C(OC(C)=O)CC(=O)OC2CC)C(OC)C1OC (stereo not drawn) [Compound 6, 3,2'-diacetyl-4'"-carboethoxytylosin]									100 (≈ 93.3 µM)	0.78 (≈ 0.727 µM)	100 (≈ 93.3 µM)	100 (≈ 93.3 µM)	100 (≈ 93.3 µM)	0.78 (≈ 0.727 µM)	0.78 (≈ 0.727 µM)	0.39 (≈ 0.364 µM)
CCCCCC(=O)OC1C(C)OC(OC2C(C)OC(OC3C(CC=O)CC(C)C(=O)C=CC(C)=CC(COC4OC(C)C(O)C(OC)C4OC)C(CC)OC(=O)CC(O)C3C)C(O)C2N(C)C)CC1(C)O (stereo not drawn) [Compound 7, 4"-n-caproyl(or n-hexanoyl)tylosin]									6.25 (≈ 6.16 µM)	0.78 (≈ 0.769 µM)	12.5 (≈ 12.3 µM)	12.5 (≈ 12.3 µM)	25 (≈ 24.6 µM)	0.78 (≈ 0.769 µM)	0.78 (≈ 0.769 µM)	0.39 (≈ 0.385 µM)
CCCCCC(=O)OC1C(C)OC(OC2C(C)OC(OC3C(CC=O)CC(C)C(=O)C=CC(C)=CC(COC4OC(C)C(O)C(OC)C4OC)C(CC)OC(=O)CC(OC(C)=O)C3C)C(O)C2N(C)C)CC1(C)O (stereo not drawn) [Compound 8, 3-acetyl-4"-n-caproyl(or n-hexanoyl)tylosin]									6.25 (≈ 5.92 µM)	0.78 (≈ 0.738 µM)	25 (≈ 23.7 µM)	25 (≈ 23.7 µM)	25 (≈ 23.7 µM)	0.78 (≈ 0.738 µM)	0.39 (≈ 0.369 µM)	0.39 (≈ 0.369 µM)
CCCCCCCC(=O)OC1C(C)OC(OC2C(C)OC(OC3C(CC=O)CC(C)C(=O)C=CC(C)=CC(COC4OC(C)C(O)C(OC)C4OC)C(CC)OC(=O)CC(O)C3C)C(O)C2N(C)C)CC1(C)O (stereo not drawn) [Compound 9, 4"-n-caprylyl(or n-octanoyl)tylosin]									25 (≈ 24 µM)	1.56 (≈ 1.5 µM)	25 (≈ 24 µM)	25 (≈ 24 µM)	25 (≈ 24 µM)	0.78 (≈ 0.748 µM)	0.78 (≈ 0.748 µM)	0.39 (≈ 0.374 µM)
CCCCCCCCCC(=O)OC1C(C)OC(OC2C(C)OC(OC3C(CC=O)CC(C)C(=O)C=CC(C)=CC(COC4OC(C)C(O)C(OC)C4OC)C(CC)OC(=O)CC(O)C3C)C(O)C2N(C)C)CC1(C)O (stereo not drawn) [Compound 10, 4"-n-capryl(or n-decanoyl)tylosin]									50 (≈ 46.7 µM)	1.56 (≈ 1.46 µM)	100 (≈ 93.4 µM)	100 (≈ 93.4 µM)	50 (≈ 46.7 µM)	1.56 (≈ 1.46 µM)	1.56 (≈ 1.46 µM)	0.78 (≈ 0.729 µM)
CCC1OC(=O)CC(O)C(C)C(OC2OC(C)C(OC3CC(C)(O)C(OC(=O)CCC(C)C)C(C)O3)C(N(C)C)C2O)C(CC=O)CC(C)C(=O)C=CC(C)=CC1COC1OC(C)C(O)C(OC)C1OC (stereo not drawn) [Compound 11, 4"-iso-caproyl(or iso-hexanoyl)tylosin]									6.25 (≈ 6.16 µM)	0.78 (≈ 0.769 µM)	12.5 (≈ 12.3 µM)	12.5 (≈ 12.3 µM)	12.5 (≈ 12.3 µM)	0.78 (≈ 0.769 µM)	0.78 (≈ 0.769 µM)	0.39 (≈ 0.385 µM)
CCC1OC(=O)CC(OC(C)=O)C(C)C(OC2OC(C)C(OC3CC(C)(O)C(OC(=O)C(O)c4ccccc4)C(C)O3)C(N(C)C)C2O)C(CC=O)CC(C)C(=O)C=CC(C)=CC1COC1OC(C)C(O)C(OC)C1OC [Compound 18, 3-acetyl-4"-L-(α-hydroxyphenylacetyl)tylosin]										0.78 (≈ 0.714 µM)		25 (≈ 22.9 µM)		0.78 (≈ 0.714 µM)	0.78 (≈ 0.714 µM)	0.39 (≈ 0.357 µM)
